Experimental data published in article PMC11091889, “Silver Organometallics that are Highly Potent Thioredoxin and Glutathione Reductase Inhibitors: Exploring the Correlations of Solution Chemistry with the Strong Antibacterial Effects” (ACS Infectious Diseases, 2024).

Key:
[1] = system: E. coli (DSM1116, ATCC 9637); assay: microbe, parasite or virus in culture; assay type: cell-based, Escherichia coli; conditions: n = 3, MHB; for EC50 / MIC E. coli: mean ± standard error; for MIC E. coli / MIC E. coli (value in brackets): 22 h
Protocol: (§1) The antibacterial effect of the silver NHC complexes and selected ligands was evaluated in two Gram-positive [Enterococcus faecium, methicillin resistant S. aureus, (MRSA)] and in four Gram-negative (Acinetobacter baumannii, Escherichia coli, Klebsiella pneumoniae, and Pseudomonas aeruginosa) pathogenic bacterial strains using broth microdilution assays. The resulting minimal inhibitory concentrations (MICs, Table 2) and EC50 (Table S6) were determined by a curve fitting procedure. Silver nitrate (AgNO3), SSD, and various antibiotics were used as references.
(§2) The following strains of ESKAPE panel were utilized and maintained at 37 °C in MHB (21 g/L Müller Hinton broth, pH 7.4) or TSY (30 g/L trypticase soy broth, 3 g/L yeast extract, pH 7.0–7.2) media: A. baumannii (DSM 30007, ATCC 19606), E. coli (DSM1116, ATCC 9637), K. pneumoniae (DSM 11678, ATCC33495), P. aeruginosa PA7 (DSM 24068) in MHB; E. faecium (DSM 20477, ATCC 19434), and S. aureus MRSA (DSM 11822, ICB 25701) in TSY. MIC values were determined following a standardized protocol in broth microdilution assays. The compounds and reference substances (AgNO3 and SSD) were serially diluted from 64 to 1 μg/mL. Starting inocula of 2–8 × 10^5 CFU/mL in MHB or TSY media at 37 °C were used, and serial dilutions were carried out in 96-well microtiter plates in duplicate. After incubation of the plates for 22 h at 37 °C, the absorbance at 600 nm was measured using The Spark multimode microplate reader (Tecan Trading AG). The MIC values for the tested compounds were determined in three independent experiments and presented in μM with standard errors and also in μg/mL. Amikacin (P. aeruginosa), linezolid (S. aureus), and ciprofloxacin (all other strains) served as positive controls. The MIC and EC50 values were determined by curve fitting with Sigma Plot. To determine the effect of the culture medium on the activity of silver compounds, the assay was performed using MHB, TSY, or DMEM (Gibco). To observe the effect of individual components of TSY medium, antibacterial tests were performed using MHB with addition of tryptone (17 g/L) or yeast extract (3 g/L, both were purchased from Sigma).

[2] = system: P. aeruginosa PA7 (DSM 24068); assay: microbe, parasite or virus in culture; assay type: cell-based, Pseudomonas aeruginosa; conditions: n = 3, MHB; for MIC P. aeruginosa / EC50: mean ± standard error; for MIC P. aeruginosa / MIC P. aeruginosa (value in brackets): 22 h; for EC50: read-out: EC50 P. aeruginosa
Protocol: as §1, §2

[3] = system: A. baumannii (DSM 30007, ATCC 19606); assay: Broth microdilution antibacterial assay; assay type: cell-based, Acinetobacter baumannii; conditions: n = 3, MHB; for MIC A. baumannii / EC50: mean ± standard error; for MIC A. baumannii / MIC A. baumannii (value in brackets): 22 h; for EC50: read-out: EC50 A. baumannii
Protocol: as §1, §2

[4] = Conductometry: molar conductivity of silver complexes in DMSO; assay type: physicochemical; conditions: 1.0 mM in DMSO, calculated as monocarbene (NHC)AgX
Protocol: Since both the neutral monocarbene and the ionic biscarbene form of the complexes may exist in various proportions in the solution, conductometry studies were performed to reveal the dominant structure. The molar conductivity of 1.0 mM solutions of each complex in DMSO was determined after different periods up to 24 h using AgNO3 as 1:1 electrolyte reference (see Table 1). According to the literature, the expected range of molar conductivity for 1:1 electrolytes in DMSO is 35–90 S cm^2 mol^–1.[45],[46]
Conductivity measurements were performed using an Apera Instruments EC9500 conductivity meter. Solutions (as indicated, otherwise 1.0 mM) of all compounds were prepared using freshly distilled DMSO with a specific electrical conductivity of ≤3 × 10^–8 S cm^–1. The conductivities were measured at 25 ± 2 °C immediately after complete dissolution and after 24 h.

[5] = system: S. aureus MRSA (DSM 11822, ICB 25701); assay: microbe, parasite or virus in culture; assay type: cell-based, methicillin resistant S. aureus; conditions: n = 3, TSY; for MIC MRSA / EC50: mean ± standard error; for MIC MRSA / MIC MRSA (value in brackets): 22 h; for EC50: read-out: EC50 MRSA
Protocol: as §1
The importance of the culture medium used in antibacterial assays has been pointed out for antibiotics and in particular for silver.[53]−[55] In our recent studies, tryptic soy yeast (TSY) broth has been used for growing Gram-positive bacteria. Two components thereof, tryptone and yeast extract, have been reported to affect the antibacterial activity of silver nitrate.[55] Moreover, such an effect was also observed for other media containing at least one of those components.[11],[53] […] Silver nitrate served as a reference, and three different growth media were studied, namely, Müller-Hinton Broth (MHB, commonly used for Gram-negative bacteria), TSY broth (commonly used for Gram-positive bacteria), and DMEM supplemented with 10% FCS (commonly used for growth of mammalian and human cells).
as §2

[6] = system: E. faecium (DSM 20477, ATCC 19434); assay: Broth microdilution antibacterial assay; assay type: cell-based, Enterococcus faecium; conditions: n = 3, TSY; for MIC E. faecium / EC50: mean ± standard error; for MIC E. faecium / MIC E. faecium (value in brackets): 22 h; for EC50: read-out: EC50 E. faecium
Protocol: as §1, §2

Caco-2 cells = conditions: read-out: Cytotoxicity IC50 Caco-2; 24 h, almost confluent cell layers, highest concentration 100 μM
Protocol: Besides the antimicrobial effects, the toxic effects of silver ions have to be considered.[10],[12] As a primary evaluation of the cell toxicity triggered by silver NHC complexes, almost confluent cell layers of CaCo-2 cells were grown and challenged for 24 h with the silver complexes and also with the silver reference compounds AgNO3 and SSD (see Figure 6).
Caco-2 cells were grown as almost confluent monolayers in 96-well plates. The complexes were dissolved in wells of 96-well plates as stock solutions in DMSO (0.2% v/v) diluted with DMEM cell culture medium, which was supplemented with 10% fetal calf serum and 50 mg/L gentamicin. The cell layers were incubated with the drug containing media for 24 h at 37 °C/5% CO2 in an incubator. The cell viability was determined using crystal violet (0.02%) staining and was calculated as percentage of an untreated control. Results were obtained in three independent experiments.

[7] = system: K. pneumoniae (DSM 11678, ATCC33495); assay: Broth microdilution antibacterial assay; assay type: cell-based, Klebsiella pneumoniae; conditions: n = 3, MHB; for MIC K. pneumoniae / EC50: mean ± standard error; for MIC K. pneumoniae / MIC K. pneumoniae (value in brackets): 22 h; for EC50: read-out: EC50 K. pneumoniae
Protocol: as §1, §2

[8] = system: P. aeruginosa (PA 14) biofilm; assay: Inhibition of biofilm formation, crystal violet staining; assay type: cell-based, Pseudomonas aeruginosa; conditions: for smallest active concentration for biofilm inhibition: concentration at which the % inhibition was found; for biofilm inhibition: ± SD, n = 4, at the respective smallest active concentration, 24 h
Description: Silver and its complexes can strongly affect the growth of biofilms.[56]−[58] In view of the promising activity against Gram-negative bacteria as mentioned above, we evaluated the inhibiting effect of the silver complexes on biofilm production by P. aeruginosa by a method based on crystal violet staining (Table 4 and Figure S14). Complexes 3a–c and 4a–c were selected for the test based on the results of solubility, stability, and antibacterial screening. […] The lower activity of 3c might be explained by its lower kinetic solubility in the aqueous environment (see Figure 4).
The antibiofilm activity was determined according to a literature method.[73] A 1 mL aliquot of P. aeruginosa (PA 14) was taken from −20 °C stock, incubated in 25 mL LB medium (Luria–Bertani Broth) in a 250 mL flask, and kept at 37 °C at 100 rpm overnight. The optical density at 600 nm (OD600) of the culture solution was adjusted to match the turbidity of a 0.1 McFarland standard in M63 medium.[74] Selected compounds were mixed with 150 μL of bacterial solution in U-bottom 96 well plates to the final respective concentrations (25–0.2 μg/mL). The plates were further incubated at 37 °C for 24 h while shaking at 150 rpm. Afterward, the plates were rinsed once with 150 μL of PBS buffer, and the biofilms were stained using 150 μL of crystal violet (0.1%) staining at room temperature for 15 min and then rinsed once with PBS buffer. After rinsing, 150 μL of ethanol (95%) was added, and the absorbance was quantified using a plate reader (Synergy 2, BioTek, Santa Clara, USA) at 550 nm. The resulting antibiofilm activity is presented as percentage of inhibition at the respective smallest active concentration in μM with standard deviation (SD) of two repeats with duplicates. Myxovalargin A and DMSO (2.5%) were used as the positive and negative controls, respectively.

Row | Compound | EC50 [1] | MIC E. coli [1] | MIC E. coli (value in brackets) [1] | MIC P. aeruginosa [2] | EC50 [2] | MIC P. aeruginosa (value in brackets) [2] | MIC A. baumannii [3] | EC50 [3] | MIC A. baumannii (value in brackets) [3] | Molar conductivity ΛM ([4]; 1 h after dissolution) | Molar conductivity ΛM ([4]; 24 h after dissolution) | MIC MRSA [5] | EC50 [5] | MIC MRSA (value in brackets) [5] | MIC E. faecium [6] | EC50 [6] | MIC E. faecium (value in brackets) [6] | MIC K. pneumoniae [7] | EC50 [7] | MIC K. pneumoniae (value in brackets) [7] | further results
1 | Cn1[c](=[Ag][I])n(Cc2ccccn2)c2ccccc21 [1c, Iodido (1-Methyl-3-(pyridin-2-ylmethyl)-benzimidazol-2-ylidene) Silver(I)] | 6.4 ± 1.1 µM | 11.6 ± 2.9 µM | 5 µg/mL | 14.6 ± 2.9 µM | 5 ± 0.5 µM | 7 µg/mL | 8.7 ± 0.0 µM | 4.1 ± 0.4 µM | 4 µg/mL | 7.82 S cm^2 mol^–^1 | 8.13 S cm^2 mol^–^1 | > 140 µM | > 140 µM | > 64 µg/mL | > 140 µM | > 140 µM | > 64 µg/mL | 5.1 ± 1.9 µM | 2 ± 0.2 µM | 2 µg/mL | IC50 (Caco-2 cells): > 100 µM
2 | CCn1[c](=[Ag][I])n(Cc2ccccn2)c2ccccc21 [2c, Iodido (1-Ethyl-3-(pyridin-2-ylmethyl)-benzimidazol-2-ylidene) Silver(I)] | 12.8 ± 1.1 µM | 16.9 ± 0.0 µM | 8 µg/mL | 45.2 ± 11.3 µM | 14.2 ± 0.8 µM | 21 µg/mL | 8.5 ± 0.0 µM | 2.9 ± 0.5 µM | 4 µg/mL | 6.98 S cm^2 mol^–^1 | 6.28 S cm^2 mol^–^1 | > 136 µM | > 136 µM | > 64 µg/mL | > 136 µM | > 136 µM | > 64 µg/mL | 11.3 ± 2.8 µM | 5.9 ± 1.7 µM | 5 µg/mL | IC50 (Caco-2 cells): > 100 µM
3 | COCCn1[c]([Ag][Cl])[n+](Cc2ccccn2)c2ccccc21 [4a] | 31.1 ± 1.8 µM | 39.0 ± 0.0 µM | 16 µg/mL | 26.0 ± 6.5 µM | 9.6 ± 0.3 µM | 11 µg/mL | 16.2 ± 3.2 µM | 1.9 ± 0.4 µM | 7 µg/mL | 3.38 S cm^2 mol^–^1 | 3.01 S cm^2 mol^–^1 | 156 ± 0.0 µM | 85.7 ± 0.6 µM | 64 µg/mL | 156 ± 0.0 µM | 123 ± 6.1 µM | 64 µg/mL | 9.74 ± 0.0 µM | 5.2 ± 0.1 µM | 4 µg/mL | smallest active concentration for biofilm inhibition [8]: 7.6 µM; biofilm inhibition [8]: 71 ± 3%
4 | COCCn1[c](=[Ag][Br])n(Cc2ccccn2)c2ccccc21 [4b, Bromido (1-(2-Methoxyethyl)-3-(pyridin-2-ylmethyl)-benzimidazol-2-ylidene) Silver(I)] | 59.2 ± 4.3 µM | 70.3 ± 0.0 µM | 32 µg/mL | 23.4 ± 5.9 µM | 8.6 ± 1.1 µM | 11 µg/mL | 11.7 ± 2.9 µM | 2.1 ± 0.1 µM | 5 µg/mL | 5.11 S cm^2 mol^–^1 | 5.08 S cm^2 mol^–^1 | 141 ± 0.0 µM | 78.3 ± 2 µM | 64 µg/mL | 141 ± 0.0 µM | 120 ± 0.8 µM | 64 µg/mL | 17.6 ± 0.0 µM | 9.8 ± 1 µM | 8 µg/mL | smallest active concentration for biofilm inhibition [8]: 6.8 µM; biofilm inhibition [8]: 70 ± 5%
5 | myxovalargin A [reference compound] |  |  |  |  |  |  |  |  |  |  |  |  |  |  |  |  |  |  |  |  | smallest active concentration for biofilm inhibition [8]: 18.6 µM; biofilm inhibition [8]: 68 ± 0%
